Read-outs that look alike come from different tables or passages of the source.
Assays:
[1] = system: U-2 OS reporter cell lines battery; assay: CALUX reporter gene assay battery as a whole
[2] = system: U-2 OS cells; assay: Cytotox CALUX; details: for PoD cytotoxicity: 24 h exposure, lowest effect level PC20, means from 3 assay runs
[3] = system: p53-dependent pathway activation / genotoxicity; format: cell-based, human; details: 24 h exposure, lowest effect level FI=1.5, means from 3 assay runs
Experimental: (§1) After 24 h, exposure medium was prepared. […] All samples were tested in triplicates. […] Fig. SM_4. […] Fig. SM_4.
(§2) Supplementary Material SM_4
(§3) Overview of CALUX assays.
(§4) This is defined as the concentration of test compound […]
(§5) for an antagonist assay is a PC20.
(§6) PC = positive control. FI = fold induction. PC10: concentration where test compound causes an activation equal to 10% of the maximum effect (positive control). PC20: concentration where test compound causes […]
(§7) FI=1.5: concentration where test
(§8) (A) exemplary graph of concentration- […]
(§9) receptor antagonism assay with PC20 as lowest-effect-level. (C) exemplary graph for assay with 1.5 fold inductionas lowest effect level. 9

[4] = set-up: method as in Hardman JG 2001; details: known Cmax in man; ref Hardman JG 2001; cited from earlier work
[5] = pooled test systems of the NAM panel (all test methods)
[6] = system: Nrf2 (Oxidative stress); assay: Nrf2 CALUX; format: cell-based, human; details: 24 h exposure, lowest effect level FI=1.5, means from 3 assay runs
Experimental: as §1, §2, §3, §4, §5, §6, §7, §8, §9

[7] = biological target: T1, Aryl Hydrocarbon receptor (Rattus norvegicus, UniProt P41738); assay: DR CALUX / AhR CALUX (rat hepatoma H-4-II-E cells); format: cell-based; details: 24 h exposure, lowest effect level PC10, means from 3 assay runs
T1 construct: host or cells: rat hepatoma H-4-II-E (ATCC CRL-1548)
T1 sequence (P41738 10-853): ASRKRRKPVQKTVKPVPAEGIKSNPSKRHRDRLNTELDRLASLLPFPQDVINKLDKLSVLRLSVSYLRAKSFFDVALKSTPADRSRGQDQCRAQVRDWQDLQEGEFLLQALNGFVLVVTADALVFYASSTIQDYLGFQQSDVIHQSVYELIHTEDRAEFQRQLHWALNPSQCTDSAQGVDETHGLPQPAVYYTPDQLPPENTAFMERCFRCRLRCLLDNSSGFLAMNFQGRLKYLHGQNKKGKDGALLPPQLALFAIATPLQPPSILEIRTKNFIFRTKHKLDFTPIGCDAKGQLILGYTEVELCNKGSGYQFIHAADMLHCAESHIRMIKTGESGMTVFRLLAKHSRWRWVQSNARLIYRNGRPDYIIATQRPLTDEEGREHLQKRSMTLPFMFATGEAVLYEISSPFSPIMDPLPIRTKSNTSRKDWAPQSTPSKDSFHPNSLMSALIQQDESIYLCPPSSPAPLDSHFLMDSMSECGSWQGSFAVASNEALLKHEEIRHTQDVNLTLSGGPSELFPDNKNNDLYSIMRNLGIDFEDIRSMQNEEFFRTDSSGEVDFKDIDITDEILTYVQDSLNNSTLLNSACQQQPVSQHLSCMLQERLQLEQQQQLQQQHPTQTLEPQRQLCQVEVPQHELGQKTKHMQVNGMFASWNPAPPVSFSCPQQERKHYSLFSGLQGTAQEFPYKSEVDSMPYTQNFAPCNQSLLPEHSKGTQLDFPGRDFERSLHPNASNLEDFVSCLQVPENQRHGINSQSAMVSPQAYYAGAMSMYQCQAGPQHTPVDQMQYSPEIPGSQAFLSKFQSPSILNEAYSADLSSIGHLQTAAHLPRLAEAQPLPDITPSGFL

[8] = biological target: T2, Progesterone receptor (Homo sapiens, UniProt P06401); assay: PR-anti CALUX; format: cell-based; details: 24 h exposure, lowest effect level PC20, reference agonist at EC50, means from 3 assay runs
T2 construct: host or cells: U-2 OS
T2 sequence (P06401 1-933): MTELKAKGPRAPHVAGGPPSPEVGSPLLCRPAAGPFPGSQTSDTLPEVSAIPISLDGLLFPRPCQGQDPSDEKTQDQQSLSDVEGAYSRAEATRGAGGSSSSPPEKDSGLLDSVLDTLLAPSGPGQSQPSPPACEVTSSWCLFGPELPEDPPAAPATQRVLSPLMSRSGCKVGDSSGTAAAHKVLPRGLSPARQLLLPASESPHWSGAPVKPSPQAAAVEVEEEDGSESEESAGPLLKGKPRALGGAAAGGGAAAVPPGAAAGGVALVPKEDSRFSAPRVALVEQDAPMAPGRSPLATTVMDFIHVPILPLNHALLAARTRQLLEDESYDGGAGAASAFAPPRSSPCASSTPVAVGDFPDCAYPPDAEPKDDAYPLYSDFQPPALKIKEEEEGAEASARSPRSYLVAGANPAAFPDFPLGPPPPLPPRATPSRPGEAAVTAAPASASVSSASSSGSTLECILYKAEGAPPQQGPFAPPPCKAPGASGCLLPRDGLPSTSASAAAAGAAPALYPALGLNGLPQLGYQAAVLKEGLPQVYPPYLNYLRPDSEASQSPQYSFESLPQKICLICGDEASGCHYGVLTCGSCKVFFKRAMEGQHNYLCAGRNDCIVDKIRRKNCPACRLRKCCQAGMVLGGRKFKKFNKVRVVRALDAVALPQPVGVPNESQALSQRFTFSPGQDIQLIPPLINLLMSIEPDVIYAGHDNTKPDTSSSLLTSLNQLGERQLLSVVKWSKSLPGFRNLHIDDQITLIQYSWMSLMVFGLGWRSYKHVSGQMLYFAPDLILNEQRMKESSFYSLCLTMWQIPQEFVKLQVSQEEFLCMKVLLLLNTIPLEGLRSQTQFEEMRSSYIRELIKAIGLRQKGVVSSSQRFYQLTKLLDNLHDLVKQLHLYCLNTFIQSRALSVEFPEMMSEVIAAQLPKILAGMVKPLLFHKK
Experimental: as §1, §2, §3, §4, §5, §6, §7, §8, §9

[9] = biological target: T3, Pregnane X receptor (Homo sapiens, UniProt O75469); assay: PXR CALUX; format: cell-based; details: 24 h exposure, lowest effect level PC10, means from 3 assay runs
T3 construct: host or cells: U-2 OS
T3 sequence (O75469 1-434): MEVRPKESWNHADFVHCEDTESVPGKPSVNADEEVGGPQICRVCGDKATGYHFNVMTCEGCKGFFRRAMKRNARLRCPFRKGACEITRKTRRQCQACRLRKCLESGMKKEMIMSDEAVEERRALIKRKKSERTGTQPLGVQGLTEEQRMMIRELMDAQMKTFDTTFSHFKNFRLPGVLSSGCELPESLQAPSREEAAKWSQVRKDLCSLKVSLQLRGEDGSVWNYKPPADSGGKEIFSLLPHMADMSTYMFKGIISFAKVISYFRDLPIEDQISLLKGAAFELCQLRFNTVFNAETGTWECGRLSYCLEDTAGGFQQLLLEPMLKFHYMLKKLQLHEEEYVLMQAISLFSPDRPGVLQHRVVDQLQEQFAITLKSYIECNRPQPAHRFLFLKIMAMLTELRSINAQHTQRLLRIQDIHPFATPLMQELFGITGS
Experimental: as §1, §2, §3, §4, §5, §6, §7, §8, §9

[10] = system: U-2 OS cells; details: human
[11] = system: Endoplasmic reticulum stress; assay: ESRE CALUX; format: cell-based, human; details: 24 h exposure, lowest effect level PC10, means from 3 assay runs
Experimental: as §1, §2, §3, §4, §5, §6, §7, §8, §9

[12] = all CALUX assays, 13 concentrations, 24 h exposure

Row | Compound | response profile over the CALUX battery (in words) [1, 12] | PoD cytotoxicity [2] | PoD p53 [3] | Cmax [4] [µM] | PoD Nrf2 [6] | PoD PR - anta [8] | PoD PXR - ago [9] | also measured
1 | C[n+]1ccc(-c2ccccc2)cc1 [MPP^+, methyl-phenyl-pyridinium] | no effect | – | – | – | – | – | – | –
2 | C=C(C)[C@H]1Cc2c(ccc3c2O[C@@H]2COc4cc(OC)c(OC)cc4[C@@H]2C3=O)O1 [Rotenone] | – | 5.7 -log(M) | 6.8 -log(M) | – | – | – | – | –
3 | COc1cc2c(c(OC)c1OC)-c1ccc(OC)c(=O)cc1[C@@H](NC(C)=O)CC2 [Colchicine] | – | 7.3 -log(M) | – | 449 | – | – | – | cytotoxic concentration [2]: 50 nM
4 | Cc1noc(NS(=O)(=O)c2ccc(N)cc2)c1C [Sulfisoxazole] | no effect | – | – | 464 | – | – | – | viability [5]: 100%
5 | CC(C)(C)C(O)(CCc1ccc(Cl)cc1)Cn1cncn1 (stereo not drawn) [Tebuconazole] | – | 4.3 -log(M) | – | – | 4.2 -log(M) | 5.6 -log(M) | 5.8 -log(M) | PoD AhR - ago [7]: 5.1 -log(M)
6 | CO[C@H]1/C=C/O[C@@]2(C)Oc3c(C)c(O)c4c(O)c(c(/C=N/N5CCN(C)CC5)c(O)c4c3C2=O)NC(=O)/C(C)=C\C=C\[C@H](C)[C@H](O)[C@@H](C)[C@@H](O)[C@@H](C)[C@H](OC(C)=O)[C@@H]1C [Rifampicin] | – | – | 4.2 -log(M) | – | 4.6 -log(M) | 4.8 -log(M) | 7.1 -log(M) | PoD cytotoxicity [10]: 4.0; response profile over the CALUX battery (in words) [1]: additionally activated several stress pathway related assays; PoD ESRE [11]: 4.0 -log(M)

Source: paper PMC7367925, “The EU-ToxRisk method documentation, data processing and chemical testing pipeline for the regulatory use of new approach methods” (Archives of Toxicology, 2020)
